Test results as given in publication PMC4890880 (ACS infectious diseases, 2016).
Where two headings read alike, the source gives them in different places.

Assays:
[1] = system: Plasmodium berghei (Pb-Luc) exoerythrocytic-stage parasites; details: for normalized signal at concentration 10 / normalized signal at concentration 0.000508053 / normalized signal at concentration 0.00152416 / normalized signal at concentration 0.00457247 / normalized signal at concentration 0.0137174 / normalized signal at concentration 0.0411523 / normalized signal at concentration 0.123457 / normalized signal at concentration 0.37037 / normalized signal at concentration 1.11111 / normalized signal at concentration 3.33333: fraction of control; for IC50: read-out: PbLuc_IC50, Broad compounds, dose response; for IC50 / PbLuc_max_inhibition (%): sheet 2nd round; for PbLuc_max_inhibition (%): maximal inhibition in dose response
[2] = system: HepG2-A16-CD81EGFP cells; details: sheet 2nd round; for IC50: read-out: Tox_IC50, HepG2 cytotoxicity; for Tox_max_inhibition (%): maximal inhibition in dose response
[3] = first series of dose-response columns
[4] = second series of dose-response columns

| Compound | normalized signal at concentration 10 [1, 3] | normalized signal at concentration 0.000508053 ([1]; first series) | normalized signal at concentration 0.00152416 ([1]; first series) | normalized signal at concentration 0.00457247 ([1]; first series) | normalized signal at concentration 0.0137174 ([1]; first series) | normalized signal at concentration 0.0411523 ([1]; first series) | normalized signal at concentration 0.123457 ([1]; first series) | normalized signal at concentration 0.37037 ([1]; first series) | normalized signal at concentration 1.11111 ([1]; first series) | normalized signal at concentration 3.33333 ([1]; first series) | IC50 [1] [µM] | normalized signal at concentration 10 [1, 4] | normalized signal at concentration 0.000508053 ([1]; second series) | normalized signal at concentration 0.00152416 ([1]; second series) | normalized signal at concentration 0.00457247 ([1]; second series) | normalized signal at concentration 0.0137174 ([1]; second series) | normalized signal at concentration 0.0411523 ([1]; second series) | normalized signal at concentration 0.123457 ([1]; second series) | normalized signal at concentration 0.37037 ([1]; second series) | normalized signal at concentration 1.11111 ([1]; second series) | also measured |
| --- | --- | --- | --- | --- | --- | --- | --- | --- | --- | --- | --- | --- | --- | --- | --- | --- | --- | --- | --- | --- | --- |
| COc1ccc(NC(=O)N(C)C[C@H]2Oc3ccc(NC(=O)CCN4CCOCC4)cc3C(=O)N([C@H](C)CO)C[C@@H]2C)cc1 [BRD-K36853881-001-02-5] | 0.82 | 0.84 | 0.86 | 0.85 | 0.75 | 0.91 | 0.88 | 0.86 | 0.92 | 0.69 | > 10 | 0.77 | 1.01 | 0.81 | 0.82 | 0.71 | 0.92 | 0.81 | 0.84 | 0.84 | normalized signal at concentration 3.33333 ([1]; second series): 0.84; PbLuc_max_inhibition (%) [1]: 31%; IC50 [2]: > 10 µM; Tox_max_inhibition (%) [2]: 9% |
| COc1cccc(CN2[C@H](CO)[C@@H](c3ccccc3)C23CN(Cc2ccccc2OC)C3)c1 [BRD-K58149752-001-01-9] | 0.43 | 0.95 | 0.91 | 0.80 | 0.89 | 0.73 | 1.00 | 0.78 | 1.22 | 1.08 | > 10 | 0.60 | 0.82 | 0.84 | 0.88 | 0.90 | 1.01 | 0.92 | 0.85 | 0.92 | normalized signal at concentration 3.33333 ([1]; second series): 0.98; PbLuc_max_inhibition (%) [1]: 57%; IC50 [2]: > 10 µM; Tox_max_inhibition (%) [2]: 12% |
